According to the supplement of paper PMC10307832:

Columns and labels:
Experiment in all cases: relative viability (nuclei count vs DMSO), 5 days (fraction); higher = more cells survive
Gemcitabine + Olaparib = compound: Nc1ccn([C@@H]2O[C@H](CO)[C@@H](O)C2(F)F)c(=O)n1 [Gemcitabine] + O=C(c1cc(Cc2n[nH]c(=O)c3ccccc23)ccc1F)N1CCN(C(=O)C2CC2)CC1 [Olaparib] (partner 8 µM)
Method in brief: (§1)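 After 5 days of treatment, lung cancer cells in 1536-well plates were fixed and stained in a single step (final 0.05% Triton X-100, 1% formaldehyde, 1 ug/ml Hoechst) and their nuclei counted on 4× images. Treatment had been applied by pin tool the day after seeding as one drug alone or as a fixed anchor-drug dose with five library-drug doses (not always all listed) in √10 steps. Relative viability is the nuclei count of treated wells divided by that of vehicle wells, and values are medians of duplicate plates.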

Gemcitabine + Pemetrexed = compound: Nc1ccn([C@@H]2O[C@H](CO)[C@@H](O)C2(F)F)c(=O)n1 [Gemcitabine] + Nc1nc2[nH]cc(CCc3ccc(C(=O)N[C@@H](CCC(=O)O)C(=O)O)cc3)c2c(=O)[nH]1 [Pemetrexed] (partner 0.2 µM)
Method in brief: as §1

Gemcitabine + Alpelisib = compound: Nc1ccn([C@@H]2O[C@H](CO)[C@@H](O)C2(F)F)c(=O)n1 [Gemcitabine] + Cc1nc(NC(=O)N2CCC[C@H]2C(N)=O)sc1-c1ccnc(C(C)(C)C(F)(F)F)c1 [Alpelisib] (partner 2 µM)
Method in brief: as §1

[1] = compound: Nc1ccn([C@@H]2O[C@H](CO)[C@@H](O)C2(F)F)c(=O)n1 [Gemcitabine] + CC(=O)c1c(C)c2cnc(Nc3ccc(N4CCNCC4)cn3)nc2n(C2CCCC2)c1=O [Palbociclib] (partner 0.5 µM)
Method in brief: as §1

## HCC-366
Gemcitabine + Olaparib; first compound 0.001 µM
  relative viability: 0.332
Gemcitabine + Olaparib; first compound 0.003162 µM
  relative viability: 0.389
Gemcitabine + Olaparib; first compound 0.01 µM
  relative viability: 0.124
Gemcitabine + Olaparib; first compound 0.03162 µM
  relative viability: 0.0348
Gemcitabine + Olaparib; first compound 0.1 µM
  relative viability: 0.0152
Gemcitabine + Pemetrexed; first compound 0.001 µM
  relative viability: 0.155
Gemcitabine + Pemetrexed; first compound 0.003162 µM
  relative viability: 0.212
Gemcitabine + Pemetrexed; first compound 0.01 µM
  relative viability: 0.189
Gemcitabine + Pemetrexed; first compound 0.03162 µM
  relative viability: 0.0374
Gemcitabine + Pemetrexed; first compound 0.1 µM
  relative viability: 0.0257
Gemcitabine + Alpelisib; first compound 0.001 µM
  relative viability: 0.516
Gemcitabine + Alpelisib; first compound 0.003162 µM
  relative viability: 0.359
Gemcitabine + Alpelisib; first compound 0.01 µM
  relative viability: 0.0565
Gemcitabine + Alpelisib; first compound 0.03162 µM
  relative viability: 0.0184
Gemcitabine + Alpelisib; first compound 0.1 µM
  relative viability: 0.0102
[1]; first compound 0.001 µM
  relative viability: 0.402
[1]; first compound 0.003162 µM
  relative viability: 0.383
[1]; first compound 0.01 µM
  relative viability: 0.205
[1]; first compound 0.03162 µM
  relative viability: 0.0402
[1]; first compound 0.1 µM
  relative viability: 0.026

## HCC-827
Gemcitabine + Olaparib; first compound 0.001 µM
  relative viability: 0.673
Gemcitabine + Olaparib; first compound 0.003162 µM
  relative viability: 0.434
Gemcitabine + Olaparib; first compound 0.01 µM
  relative viability: 0.384
Gemcitabine + Olaparib; first compound 0.03162 µM
  relative viability: 0.0193
Gemcitabine + Olaparib; first compound 0.1 µM
  relative viability: 0.162
Gemcitabine + Pemetrexed; first compound 0.001 µM
  relative viability: 0.301
Gemcitabine + Pemetrexed; first compound 0.003162 µM
  relative viability: 0.224
Gemcitabine + Pemetrexed; first compound 0.01 µM
  relative viability: 0.248
Gemcitabine + Pemetrexed; first compound 0.03162 µM
  relative viability: 0.176
Gemcitabine + Pemetrexed; first compound 0.1 µM
  relative viability: 0.145
Gemcitabine + Alpelisib; first compound 0.001 µM
  relative viability: 0.895
Gemcitabine + Alpelisib; first compound 0.003162 µM
  relative viability: 0.48
Gemcitabine + Alpelisib; first compound 0.01 µM
  relative viability: 0.56
Gemcitabine + Alpelisib; first compound 0.03162 µM
  relative viability: 0.391
Gemcitabine + Alpelisib; first compound 0.1 µM
  relative viability: 0.167
[1]; first compound 0.001 µM
  relative viability: 0.497
[1]; first compound 0.003162 µM
  relative viability: 0.304
[1]; first compound 0.01 µM
  relative viability: 0.309
[1]; first compound 0.03162 µM
  relative viability: 0.197
[1]; first compound 0.1 µM
  relative viability: 0.164

## HOP-62
Gemcitabine + Olaparib; first compound 0.001 µM
  relative viability: 0.516
Gemcitabine + Olaparib; first compound 0.003162 µM
  relative viability: 0.387
Gemcitabine + Olaparib; first compound 0.01 µM
  relative viability: 0.0703
Gemcitabine + Olaparib; first compound 0.03162 µM
  relative viability: 0.0534
Gemcitabine + Olaparib; first compound 0.1 µM
  relative viability: 0.0449
Gemcitabine + Pemetrexed; first compound 0.001 µM
  relative viability: 0.323
Gemcitabine + Pemetrexed; first compound 0.003162 µM
  relative viability: 0.299
Gemcitabine + Pemetrexed; first compound 0.01 µM
  relative viability: 0.15
Gemcitabine + Pemetrexed; first compound 0.03162 µM
  relative viability: 0.0689
Gemcitabine + Pemetrexed; first compound 0.1 µM
  relative viability: 0.0761
Gemcitabine + Alpelisib; first compound 0.001 µM
  relative viability: 0.829
Gemcitabine + Alpelisib; first compound 0.003162 µM
  relative viability: 0.572
Gemcitabine + Alpelisib; first compound 0.01 µM
  relative viability: 0.0893
Gemcitabine + Alpelisib; first compound 0.03162 µM
  relative viability: 0.0529
Gemcitabine + Alpelisib; first compound 0.1 µM
  relative viability: 0.061
[1]; first compound 0.001 µM
  relative viability: 0.358
[1]; first compound 0.003162 µM
  relative viability: 0.339
[1]; first compound 0.01 µM
  relative viability: 0.184
[1]; first compound 0.03162 µM
  relative viability: 0.0959
[1]; first compound 0.1 µM
  relative viability: 0.0958

## IA-LM
Gemcitabine + Olaparib; first compound 0.001 µM
  relative viability: 0.854
Gemcitabine + Olaparib; first compound 0.003162 µM
  relative viability: 0.788
Gemcitabine + Olaparib; first compound 0.01 µM
  relative viability: 0.797
Gemcitabine + Olaparib; first compound 0.03162 µM
  relative viability: 0.0888
Gemcitabine + Olaparib; first compound 0.1 µM
  relative viability: 0.0689
Gemcitabine + Alpelisib; first compound 0.001 µM
  relative viability: 0.789
Gemcitabine + Alpelisib; first compound 0.003162 µM
  relative viability: 0.644
Gemcitabine + Alpelisib; first compound 0.01 µM
  relative viability: 0.744
Gemcitabine + Alpelisib; first compound 0.03162 µM
  relative viability: 0.0658
Gemcitabine + Alpelisib; first compound 0.1 µM
  relative viability: 0.0561

## LC-2-ad
Gemcitabine + Olaparib; first compound 0.001 µM
  relative viability: 0.805
Gemcitabine + Olaparib; first compound 0.003162 µM
  relative viability: 0.791
Gemcitabine + Olaparib; first compound 0.01 µM
  relative viability: 0.65
Gemcitabine + Olaparib; first compound 0.03162 µM
  relative viability: 0.482
Gemcitabine + Olaparib; first compound 0.1 µM
  relative viability: 0.224
Gemcitabine + Pemetrexed; first compound 0.001 µM
  relative viability: 0.266
Gemcitabine + Pemetrexed; first compound 0.003162 µM
  relative viability: 0.28
Gemcitabine + Pemetrexed; first compound 0.01 µM
  relative viability: 0.256
Gemcitabine + Pemetrexed; first compound 0.03162 µM
  relative viability: 0.255
Gemcitabine + Pemetrexed; first compound 0.1 µM
  relative viability: 0.233
Gemcitabine + Alpelisib; first compound 0.001 µM
  relative viability: 0.901
Gemcitabine + Alpelisib; first compound 0.003162 µM
  relative viability: 0.833
Gemcitabine + Alpelisib; first compound 0.01 µM
  relative viability: 0.5
Gemcitabine + Alpelisib; first compound 0.03162 µM
  relative viability: 0.0947
Gemcitabine + Alpelisib; first compound 0.1 µM
  relative viability: 0.0966
[1]; first compound 0.001 µM
  relative viability: 0.509
[1]; first compound 0.003162 µM
  relative viability: 0.555
[1]; first compound 0.01 µM
  relative viability: 0.424
[1]; first compound 0.03162 µM
  relative viability: 0.496
[1]; first compound 0.1 µM
  relative viability: 0.317

## LCLC-97TM1
Gemcitabine + Olaparib; first compound 0.001 µM
  relative viability: 0.331
Gemcitabine + Olaparib; first compound 0.003162 µM
  relative viability: 0.178
Gemcitabine + Olaparib; first compound 0.01 µM
  relative viability: 0.0884
Gemcitabine + Olaparib; first compound 0.03162 µM
  relative viability: 0.0632
Gemcitabine + Olaparib; first compound 0.1 µM
  relative viability: 0.0703
Gemcitabine + Pemetrexed; first compound 0.001 µM
  relative viability: 0.174
Gemcitabine + Pemetrexed; first compound 0.003162 µM
  relative viability: 0.19
Gemcitabine + Pemetrexed; first compound 0.01 µM
  relative viability: 0.0994
Gemcitabine + Pemetrexed; first compound 0.03162 µM
  relative viability: 0.0729
Gemcitabine + Pemetrexed; first compound 0.1 µM
  relative viability: 0.0912
Gemcitabine + Alpelisib; first compound 0.001 µM
  relative viability: 0.228
Gemcitabine + Alpelisib; first compound 0.003162 µM
  relative viability: 0.131
Gemcitabine + Alpelisib; first compound 0.01 µM
  relative viability: 0.115
Gemcitabine + Alpelisib; first compound 0.03162 µM
  relative viability: 0.107
Gemcitabine + Alpelisib; first compound 0.1 µM
  relative viability: 0.128
[1]; first compound 0.001 µM
  relative viability: 0.17
[1]; first compound 0.003162 µM
  relative viability: 0.135
[1]; first compound 0.01 µM
  relative viability: 0.134
[1]; first compound 0.03162 µM
  relative viability: 0.0816
[1]; first compound 0.1 µM
  relative viability: 0.0933

## LCLC-103H
Gemcitabine + Olaparib; first compound 0.001 µM
  relative viability: 0.771
Gemcitabine + Olaparib; first compound 0.003162 µM
  relative viability: 0.758
Gemcitabine + Olaparib; first compound 0.01 µM
  relative viability: 0.734
Gemcitabine + Olaparib; first compound 0.03162 µM
  relative viability: 0.58
Gemcitabine + Olaparib; first compound 0.1 µM
  relative viability: 0.367
Gemcitabine + Pemetrexed; first compound 0.001 µM
  relative viability: 0.423
Gemcitabine + Pemetrexed; first compound 0.003162 µM
  relative viability: 0.435
Gemcitabine + Pemetrexed; first compound 0.01 µM
  relative viability: 0.44
Gemcitabine + Pemetrexed; first compound 0.03162 µM
  relative viability: 0.407
Gemcitabine + Pemetrexed; first compound 0.1 µM
  relative viability: 0.392
Gemcitabine + Alpelisib; first compound 0.001 µM
  relative viability: 1
Gemcitabine + Alpelisib; first compound 0.003162 µM
  relative viability: 0.878
Gemcitabine + Alpelisib; first compound 0.01 µM
  relative viability: 0.949
Gemcitabine + Alpelisib; first compound 0.03162 µM
  relative viability: 1
Gemcitabine + Alpelisib; first compound 0.1 µM
  relative viability: 0.272
[1]; first compound 0.001 µM
  relative viability: 0.491
[1]; first compound 0.003162 µM
  relative viability: 0.504
[1]; first compound 0.01 µM
  relative viability: 0.497
[1]; first compound 0.03162 µM
  relative viability: 0.42
[1]; first compound 0.1 µM
  relative viability: 0.406

## LK-2
Gemcitabine + Olaparib; first compound 0.001 µM
  relative viability: 0.878
Gemcitabine + Olaparib; first compound 0.003162 µM
  relative viability: 0.722
Gemcitabine + Olaparib; first compound 0.01 µM
  relative viability: 0.386
Gemcitabine + Olaparib; first compound 0.03162 µM
  relative viability: 0.153
Gemcitabine + Olaparib; first compound 0.1 µM
  relative viability: 0.148
Gemcitabine + Pemetrexed; first compound 0.001 µM
  relative viability: 0.298
Gemcitabine + Pemetrexed; first compound 0.003162 µM
  relative viability: 0.321
Gemcitabine + Pemetrexed; first compound 0.01 µM
  relative viability: 0.238
Gemcitabine + Pemetrexed; first compound 0.03162 µM
  relative viability: 0.14
Gemcitabine + Pemetrexed; first compound 0.1 µM
  relative viability: 0.114
Gemcitabine + Alpelisib; first compound 0.001 µM
  relative viability: 1.23
Gemcitabine + Alpelisib; first compound 0.01 µM
  relative viability: 0.447
Gemcitabine + Alpelisib; first compound 0.03162 µM
  relative viability: 0.242
Gemcitabine + Alpelisib; first compound 0.1 µM
  relative viability: 0.251
[1]; first compound 0.001 µM
  relative viability: 0.798
[1]; first compound 0.003162 µM
  relative viability: 0.696
[1]; first compound 0.01 µM
  relative viability: 0.403
[1]; first compound 0.03162 µM
  relative viability: 0.119
[1]; first compound 0.1 µM
  relative viability: 0.126
